Patent US4840658A, “Algicidal composition” (Sumitomo Chemical Company, Limited, priority 1986, dated 1989)
Counter-ions that a name gives are not always drawn. Like-named read-outs stand apart in the source and are kept apart here.

Tests used:
Heterosigma akashiwo [1] = assay: Effect of unsaturated higher fatty acids on viability of Heterosigma akashiwo (cytolysis); format: cell-based; settings: 0.5 h
Protocol: Effect of the several unsaturated higher fatty acids on viability of Heterosigma akashiwo.
(§1) Heterosigma akashiwo was incubated in PES medium under 14 hr photoperiod (3000 lux) condition at 20° C. The effects of test compounds were examined on the plankton at exponential growth phase and the medium at the phase generally contained 7×10^4 cells/ml.
(§2) The unsaturated higher fatty acid was accurately weighed and dissolved in benzene. An aliquot of the solution was transferred in a 10 ml volumetric flask. The benzene was removed in vacuo and the residue was dissolved in 0.2 ml of ethanol. A PES medium was added bit by bit to make a 10 ml solution.
(§3) Each of 1 ml of the plankton medium was transferred to the wells of a multi-dish at the cell number of 7×10^4. After good conditions of the plankton were confirmed under an inverted microscope, 1 ml of graded levels of the test solution was mixed. At specified intervals, morphological examination was conducted under the microscope, and effect concentration (EC100 ) was defined as the minimum concentration at which all of the plankton tested were cytolyzed 30 min after introduction of a test material.

Chaetoceros debile = assay: Effects of OTA on viability of plankton species; format: cell-based
Protocol: as §1, §2, §3
(§4) Effect of 6Z, 9Z, 12Z, 15Z-octadecateraeonic acid (OTA) on viability of several plankton species.
(§5) The test system was the same as in Experiment 1, except test concentration of 5 and 25 ppm and test duration of 48 hr.

Chattonella antiqua = assay: Effects of OTA on viability of plankton species; format: cell-based
Protocol: as §1, §2, §3, §4, §5

Chattonella marina = assay: Effects of OTA on viability of plankton species; format: cell-based
Protocol: as §1, §2, §3, §4, §5

Chlamydomonas sp. = assay: Effects of OTA on viability of plankton species; format: cell-based
Protocol: as §1, §2, §3, §4, §5

Cryptomonas sp. = assay: Effects of OTA on viability of plankton species; format: cell-based
Protocol: as §1, §2, §3, §4, §5

Eutreptia sp. = assay: Effects of OTA on viability of plankton species; format: cell-based
Protocol: as §1, §2, §3, §4, §5

Gymnodinium nagasakiense = assay: Effects of OTA on viability of plankton species; format: cell-based
Protocol: as §1, §2, §3, §4, §5

Gymnodinium sanguineum = assay: Effects of OTA on viability of plankton species; format: cell-based
Protocol: as §1, §2, §3, §4, §5

Hafniomonas reticulata = assay: Effects of OTA on viability of plankton species; format: cell-based
Protocol: as §1, §2, §3, §4, §5

Heterocapsa triguetra = assay: Effects of OTA on viability of plankton species; format: cell-based
Protocol: as §1, §2, §3, §4, §5

Heterosigma akashiwo [2] = assay: Effects of OTA on viability of plankton species; format: cell-based
Protocol: as §1, §2, §3, §4, §5

Nephroselmis sp. = assay: Effects of OTA on viability of plankton species; format: cell-based
Protocol: as §1, §2, §3, §4, §5

Olisthodiscus luteus = assay: Effects of OTA on viability of plankton species; format: cell-based
Protocol: as §1, §2, §3, §4, §5

Oltmannsiella sp. = assay: Effects of OTA on viability of plankton species; format: cell-based
Protocol: as §1, §2, §3, §4, §5

Prorocentrum micans = assay: Effects of OTA on viability of plankton species; format: cell-based
Protocol: as §1, §2, §3, §4, §5

Pterosperma cristatum = assay: Effects of OTA on viability of plankton species; format: cell-based
Protocol: as §1, §2, §3, §4, §5

Pyraminonas sp. = assay: Effects of OTA on viability of plankton species; format: cell-based
Protocol: as §1, §2, §3, §4, §5

Skeletonema costatum = assay: Effects of OTA on viability of plankton species; format: cell-based
Protocol: as §1, §2, §3, §4, §5

Stephanopyris palmeriana = assay: Effects of OTA on viability of plankton species; format: cell-based
Protocol: as §1, §2, §3, §4, §5

[3] = system: Cricosphaera roscoffensis; assay: Effects of OTA on viability of plankton species; format: cell-based; design: key: +: 100% cytolysis of planktons after 2 hr; ±: No cytolysis but no movement; -: No effect
Protocol: as §1, §2, §3, §4, §5

Tetraselmis cordiformis = assay: Effects of OTA on viability of plankton species; format: cell-based; design: key: +: 100% cytolysis of planktons after 2 hr; ±: No cytolysis but no movement; -: No effect
Protocol: as §1, §2, §3, §4, §5

[4] = system: Killifish (Oryzias latipes); assay: Acute toxicity of unsaturated higher fatty acids to killifish; format: in vivo; settings: adult killifish, 48 hr, 25° C.
Protocol: Acute toxicity of the several unsaturated higher fatty acids.
Killifish (Oryzias latipes) at adult stage were acclimated to laboratory conditions in dechlorinated water. Fish were withheld from food for 24 hr prior to the test.
Graded levels of the compounds in 0.5 ml ethanol were added to glass vessels, and then mixed with 100 ml of dechlorinated fresh water. Five fish were introduced to the vessel and maintained for 48 hr at 25° C.
As a solvent control, 0.5% ethanol solution was used.

[5] = system: marine dinoflagellates (Dinophyceae); assay: Algicidal activity against marine dinoflagellates; format: cell-based
[6] = minimum concentration at which all plankton cytolyzed 30 min after introduction, read-out: EC100

CCCCC/C=C\C/C=C\CCCCCCCC(=O)O [linoleic acid]
EC100 (Heterosigma akashiwo [1]; [6]): 25 µg/mL

CC/C=C\C/C=C\C/C=C\C/C=C\CCCCC(=O)O [OTA, 6Z, 9Z, 12Z, 15Z-octadecatetraenoic acid]
EC100 (Heterosigma akashiwo [1]; [6]): 2.5 µg/mL
Effect on viability (Chaetoceros debile; 5 ppm): + (100% cytolysis of planktons after 2 hr)
Effect on viability (Chaetoceros debile; 25 ppm): + (100% cytolysis of planktons after 2 hr)
Effect on viability (Chattonella antiqua; 5 ppm): + (100% cytolysis of planktons after 2 hr)
Effect on viability (Chattonella antiqua; 25 ppm): + (100% cytolysis of planktons after 2 hr)
Effect on viability (Chattonella marina; 5 ppm): + (100% cytolysis of planktons after 2 hr)
Effect on viability (Chattonella marina; 25 ppm): + (100% cytolysis of planktons after 2 hr)
Effect on viability (Chlamydomonas sp.; 5 ppm): + (100% cytolysis of planktons after 2 hr)
Effect on viability (Chlamydomonas sp.; 25 ppm): + (100% cytolysis of planktons after 2 hr)
Effect on viability (Cryptomonas sp.; 5 ppm): + (100% cytolysis of planktons after 2 hr)
Effect on viability (Cryptomonas sp.; 25 ppm): + (100% cytolysis of planktons after 2 hr)
Effect on viability (Eutreptia sp.; 5 ppm): + (100% cytolysis of planktons after 2 hr)
Effect on viability (Eutreptia sp.; 25 ppm): + (100% cytolysis of planktons after 2 hr)
Effect on viability (Gymnodinium nagasakiense; 5 ppm): + (100% cytolysis of planktons after 2 hr)
Effect on viability (Gymnodinium nagasakiense; 25 ppm): + (100% cytolysis of planktons after 2 hr)
Effect on viability (Gymnodinium sanguineum; 5 ppm): + (100% cytolysis of planktons after 2 hr)
Effect on viability (Gymnodinium sanguineum; 25 ppm): + (100% cytolysis of planktons after 2 hr)
Effect on viability (Hafniomonas reticulata; 5 ppm): + (100% cytolysis of planktons after 2 hr)
Effect on viability (Hafniomonas reticulata; 25 ppm): + (100% cytolysis of planktons after 2 hr)
Effect on viability (Heterocapsa triguetra; 5 ppm): + (100% cytolysis of planktons after 2 hr)
Effect on viability (Heterocapsa triguetra; 25 ppm): + (100% cytolysis of planktons after 2 hr)
Effect on viability (Heterosigma akashiwo [2]; 5 ppm): + (100% cytolysis of planktons after 2 hr)
Effect on viability (Heterosigma akashiwo [2]; 25 ppm): + (100% cytolysis of planktons after 2 hr)
Effect on viability (Nephroselmis sp.; 5 ppm): + (100% cytolysis of planktons after 2 hr)
Effect on viability (Nephroselmis sp.; 25 ppm): + (100% cytolysis of planktons after 2 hr)
Effect on viability (Olisthodiscus luteus; 5 ppm): + (100% cytolysis of planktons after 2 hr)
Effect on viability (Olisthodiscus luteus; 25 ppm): + (100% cytolysis of planktons after 2 hr)
Effect on viability (Oltmannsiella sp.; 5 ppm): + (100% cytolysis of planktons after 2 hr)
Effect on viability (Oltmannsiella sp.; 25 ppm): + (100% cytolysis of planktons after 2 hr)
Effect on viability (Prorocentrum micans; 5 ppm): + (100% cytolysis of planktons after 2 hr)
Effect on viability (Prorocentrum micans; 25 ppm): + (100% cytolysis of planktons after 2 hr)
Effect on viability (Pterosperma cristatum; 5 ppm): + (100% cytolysis of planktons after 2 hr)
Effect on viability (Pterosperma cristatum; 25 ppm): + (100% cytolysis of planktons after 2 hr)
Effect on viability (Pyraminonas sp.; 5 ppm): + (100% cytolysis of planktons after 2 hr)
Effect on viability (Pyraminonas sp.; 25 ppm): + (100% cytolysis of planktons after 2 hr)
Effect on viability (Skeletonema costatum; 5 ppm): + (100% cytolysis of planktons after 2 hr)
Effect on viability (Skeletonema costatum; 25 ppm): + (100% cytolysis of planktons after 2 hr)
Effect on viability (Stephanopyris palmeriana; 5 ppm): + (100% cytolysis of planktons after 2 hr)
Effect on viability (Stephanopyris palmeriana; 25 ppm): + (100% cytolysis of planktons after 2 hr)
Effect on viability ([3]; 5 ppm): ±
Effect on viability ([3]; 25 ppm): ±
Effect on viability (Tetraselmis cordiformis; 5 ppm): ±
Effect on viability (Tetraselmis cordiformis; 25 ppm): ±
LC100 [4]: > 25 ppm
Maximum no effect concentration [4]: < 20 ppm
algicidal activity [5]: strong algicidal activity

CC/C=C\C/C=C\C/C=C\CCCCCCCC(=O)[O-].[Na+] [sodium linolenate]
LC100 [4]: > 150 ppm
Maximum no effect concentration [4]: < 100 ppm

CCCCC/C=C\C/C=C\C/C=C\CCCCC(=O)O [γ-linolenic acid]
EC100 (Heterosigma akashiwo [1]; [6]): 25 µg/mL
LC100 [4]: > 50 ppm
Maximum no effect concentration [4]: < 40 ppm

CCC=CCC=CCC=CCC=CCC=CCCCC(=O)O [5,8, 11, 14, 17-eicosapentaenoic acid]
EC100 (Heterosigma akashiwo [1]; [6]): 2.5 µg/mL
LC100 [4]: > 30 ppm
Maximum no effect concentration [4]: < 25 ppm

CCCCC/C=C\C/C=C\C/C=C\C/C=C\CCCC(=O)O [arachidonic acid]
EC100 (Heterosigma akashiwo [1]): 2.5 µg/mL

CCC=CCC=CCC=CCC=CCC=CCCCC(=O)O [Na salt of 5, 8, 11, 14, 17-eicosapentaenoic acid]
LC100 [4]: > 50 ppm
Maximum no effect concentration [4]: < 30 ppm

CCCCCCCC/C=C\CCCCCCCC(=O)O [oleic acid]
EC100 (Heterosigma akashiwo [1]): 70 to 80 µg/mL
